Where two headings read alike, the source gives them in different places.

The text below walks through data of PMC8125647, “A Validated LC–MS/MS Assay for the Simultaneous Quantification of the FDA-Approved Anticancer Mixture (Encorafenib and Binimetinib): Metabolic Stability Estimation” (Molecules, 2021).

Series [1] can be described thus: Metabolic stability after incubation with human liver microsomes (LC-MS/MS). The format is in vitro ADME. As to conditions: for Slope (rate constant of disappearance, ln % remaining vs time): HLM; for half-life at 1 µM / microsomal CLint at 1 µM: human, human liver microsomes, HLM 1 mg/mL; for half-life at 1 µM: NADPH 1 mM, 37 °C, read-out: in vitro t1/2 (half-life); for microsomal CLint at 1 µM: read-out: CLint (intrinsic clearance). As to the method: The slope of each regression equation was used to estimate the in vitro t1/2 using the following equations:(1) In vitro t 1/2=ln2/slope (2) In vitro t 1/2=0.693/slope
Similarly, the CLint of ENF and BNB was calculated following the in vitro t1/2 method (15) using the following equation:(3) CLint, =0.693/in vitro t 1/2. µL incubation/mg microsomes (4) CLint, =0.693/in vitro t 1/2. 1000 /1
BNB and ENF concentration during HLM incubation was adjusted to 1 µM to ensure that it was less than the Michaelis–Menten constant and constructed a linear relationship between the ratio of metabolism and incubation time. HLMs (1 mg/mL) in phosphate buffer were used to confirm the absence of nonspecific protein binding. We performed metabolic stability assessments for ENF and BNB by measuring the decrease in ENF and BNB concentrations after incubation with an HLM matrix. One micromole from ENF and BNB was incubated with HLM (1 mg protein in 1 mL phosphate buffer) in triplicate. The metabolic reaction medium was phosphate buffer (pH 7.4) containing 3.3 mM MgCl2. The metabolic mixture was pre-incubated in a 37 °C water bath for 10 min for temperature conditioning. NADPH (1 mM) was used for the initiation of the metabolic reaction, after which 2 mL ACN was used to terminate the reaction at specific time intervals (0, 1, 2.5, 7.5, 15, 30, and 50 min), allowing us to establish metabolic stability curves for ENF and BNB. We conducted this metabolic experiment for ENF alone, BNB alone, and a mixture of ENF and BNB to evaluate the metabolic stability of BNB and ENF alone and combined. The proportion of BNB and ENF remaining either alone or combined was plotted versus incubation time. From this plot, time points in the linear range were selected to plot the natural logarithm (ln) of the remaining proportions of ENF and BNB versus time. The slope of the linear part indicated the rate constant for ENF and BNB disappearance that was used for in vitro t1/2 calculation using equation (1). Then, ENF and BNB CLint values, either alone or combined, were calculated by applying the following Equation (3).

Series [2] can be described thus: Solubility in DMSO (stock preparation). It is filed as physicochemical. As to conditions: stocks at 1 mg/mL. The protocol:
We subsequently conducted serial dilution of the stock solutions with the optimized mobile phase to obtain stocks (S1) for ENF and BNB at a 100 µg/mL concentration. The S1 stocks were then serially diluted with mobile phase to obtain stocks (S2) for ENF and BNB at a 10 µg/mL concentration. The AVB stock was dissolved in DMSO to obtain a 100 µg/mL concentration that was then serially diluted with the mobile phase to obtain a stock (S3) of AVB at a 1 µg/mL concentration.

The nature of series [3]: Stability in deactivated HLM matrix under laboratory storage conditions. It is filed as physicochemical. The protocol: We evaluated the stability of ENF and BNB in deactivated HLM matrix (1 mg protein/1 mL phosphate buffer) under common laboratory storage conditions. Analyte stability evaluation was performed in different conditions: Room temperature for 8 h, three freeze–thaw cycles, storage at 4 °C for 24 h, and storage at −20 °C for 30 d. Measured values were 96.55–101.64% for ENF and 96.79–100.05% for BNB. Stability data for ENF and BNB are described in Table 4. […] The stability data reveal that the LC–MS/MS method could be successfully used for assaying ENF and BNB without noticeable loss.
The accuracy and precision of the proposed method were investigated inter- and intra-day. The intra- and inter-day accuracy and precision values were calculated according to USFDA guidelines. The stability of ENF and BNB in different conditions, room temperature for 8 h, three freeze–thaw cycles, and storage at 4 °C for 24 h and at −20 °C for 30 d, were examined.

Setting [4] is: pH 7.4, in mixture of ENF and BNB.
Setting [5] is: room temperature for 8 h, 15 ng/mL.
The mark [6] stands for this setting: room temperature for 8 h, 150 ng/mL.
Setting [7] is: room temperature for 8 h, 400 ng/mL.
Where [8] appears, read: stored at 4 °C for 24 h, 400 ng/mL.
Where [9] appears, read: stored at −20 °C for 30 days, 15 ng/mL.
[10] abbreviates: stored at −20 °C for 30 days, 150 ng/mL.
Where [11] appears, read: stored at −20 °C for 30 days, 400 ng/mL.
The mark [12] stands for this setting: three freeze–thaw cycles, 15 ng/mL.
Where [13] appears, read: three freeze–thaw cycles, 150 ng/mL.
The mark [14] stands for this setting: three freeze–thaw cycles, 400 ng/mL.

As for `Cn1cnc2c(F)c(Nc3ccc(Br)cc3F)c(C(=O)NOCCO)cc21` [BNB, binimetinib], the “Slope (rate constant of disappearance, ln % remaining vs time)” value in series [1] (drug alone) is 0.0115; in series [1] (in mixture of ENF and BNB), 0.0119. The half-life at 1 µM stood at 60.3 min in series [1] (pH 7.4, drug alone) and 58.2 min in series [1] (setting [4]). Further, the microsomal CLint at 1 µM was determined as 11.5 µL/min/mg in series [1] (pH 7.4, drug alone) and 11.9 µL/min/mg in series [1] (setting [4]). Besides, in series [2], the “Solubility in DMSO” value is on record as “freely soluble”. The Recovery % was found to be 99.25% in series [3] (setting [5]); 98.25% in series [3] (setting [6]); 98.85% in series [3] (setting [7]); 100.05% in series [3] (stored at 4 °C for 24 h, 15 ng/mL); 97.59% in series [3] (stored at 4 °C for 24 h, 150 ng/mL); 99.33% in series [3] (setting [8]). Moreover, the Recovery % is listed as 96.72% in series [3] (setting [9]); 97.72% in series [3] (setting [10]); 98.78% in series [3] (setting [11]); 98.32% in series [3] (setting [12]); 96.79% in series [3] (setting [13]); 97.48% in series [3] (setting [14]).

`C=CC(=O)Nc1cccc(Oc2nc(Nc3ccc(N4CCN(C)CC4)c(F)c3)nc3[nH]ccc23)c1` [AVB, avitinib]: the “Solubility in DMSO” value in series [2] was “freely soluble”.

For the compound `COC(=O)N[C@@H](C)CNc1nccc(-c2cn(C(C)C)nc2-c2cc(Cl)cc(NS(C)(=O)=O)c2F)n1` [ENF, encorafenib], the “Slope (rate constant of disappearance, ln % remaining vs time)” value in series [1] (drug alone) is reported as 0.0161; in series [1] (in mixture of ENF and BNB) it was 0.0151. Moreover, the half-life at 1 µM in series [1] (pH 7.4, drug alone) came to 43.1 min; in series [1] (setting [4]), 45.9 min. Further, the microsomal CLint at 1 µM came to 16.1 µL/min/mg in series [1] (pH 7.4, drug alone) and 15.1 µL/min/mg in series [1] (setting [4]). The “Solubility in DMSO” value in series [2] is given as “freely soluble”. In series [3] (room temperature 8 h, three freeze–thaw cycles, 4 °C 24 h, −20 °C 30 d), the “Stability, measured values over all storage conditions” value is 96.55–101.64%. For the same compound, the Recovery % was 101.64% in series [3] (setting [5]); 100.55% in series [3] (setting [6]); 101.46% in series [3] (setting [7]); 98.21% in series [3] (setting [8]); 100.18% in series [3] (setting [9]); 96.55% in series [3] (setting [10]). The Recovery % was determined as 98.41% in series [3] (setting [11]), 97.37% in series [3] (setting [12]), 97.22% in series [3] (setting [13]) and 99.66% in series [3] (setting [14]).
